Source: PubChem BioAssay (NCI)
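96-well plates; 48 h exposure; 5 concentrations. Endpoints by linear interpolation between flanking doses. Not reached: highest tested concentration assigned. GI50 marks 50% less growth. Definition used: TGI = concentration required for complete inhibition of growth.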

Key:
Experiment in all cases: DTP human tumour cell line panel, 48 h
[1] = test system: 786-0 renal
[2] = test system: SK-OV-3 ovarian
[3] = test system: MALME-3M melanoma
[4] = test system: HT29 colon
[5] = test system: PC-3 prostate
[6] = test system: TK-10 renal
[7] = test system: RPMI-8226 leukemia
[8] = test system: KM12 colon
[9] = test system: LOX IMVI melanoma
[10] = test system: NCI/ADR-RES ovarian

SMILES	GI50 [1] [µM]	TGI [1] [µM]	GI50 [2] [µM]	TGI [2] [µM]	GI50 [3] [µM]	TGI [3] [µM]	GI50 [4] [µM]	TGI [4] [µM]	GI50 [5] [µM]	TGI [5] [µM]	GI50 [6] [µM]	TGI [6] [µM]	GI50 [7] [µM]	TGI [7] [µM]	GI50 [8] [µM]	TGI [8] [µM]	GI50 [9] [µM]	TGI [9] [µM]	GI50 [10] [µM]	TGI [10] [µM]
CC1OC2CC(=O)OC2C2=C1C(=O)c1c(O)cccc1C2=O (stereo not given)	0.149	0.292	1.34	2.67	0.0235	0.0695	0.0312	0.113	0.242	0.965	0.0795	0.283	0.0587	0.602	0.176	0.392	0.0342	0.129	0.0892	0.646
C=C(C)[C@@]12OC3(/C=C/C=C/CCCCC)O[C@@H]1[C@@H]1[C@@H]4O[C@]4(CO)[C@@H](O)[C@]4(O)C(=O)C(C)=C[C@H]4[C@@]1(O3)[C@H](C)[C@H]2OC(=O)c1ccccc1	1.23	2.53	2.44	4.9	11.3	26.9	1.4	2.94	1.46	3.3	< 0.0106	2.17	3.35	> 23.2	1.61	2.99	1.1	2.29	3.13	8.9
CC/C(=C(/c1ccc(OCCN(C)C)cc1)c1ccc(OC(=O)CCCCC(=O)c2c(C)[nH]c(/C=C3\N=C(c4ccc[nH]4)C=C3OC)c2C)cc1)c1ccccc1	4.77	19.2	14.1	27	9.28	34.4	2.99	14.7	4.6	20.6	12.8	25.4	3.17	18.8	3.75	14.3	2.05	5.14	12.6	46.8
O=C(Nc1ccc(OS(=O)(=O)c2ccccc2)cc1)C12CC3CC(CC(C3)C1)C2	3.8	> 100	> 100	> 100	> 100	> 100	0.403	3.69	2.9	> 100	> 100	> 100	2.15	> 100	2.1	> 100	4.38	> 100	5.75	> 100
C[As](C)SC1OC(CO)C(O)C1O (stereo not given)	0.174	0.655	6.42	22.4	0.0847	0.65	0.668	> 100	0.656	9.79	0.174	0.816	0.1	0.342	2.4	13.6	0.445	1.75	0.825	5.75
CCOc1nc(-c2ccccc2)cc2c(O)c(-c3nnco3)[nH]c(=O)c12	6.17	31.9	10	75.9	7.58	> 100	> 100	> 100	4.3	> 100	4.59	35.2	4.11	> 100	4.14	> 100	4.4	> 100	3.4	> 100
